The values that follow come from PubChem BioAssay AID248 (DTP/NCI, 2004).

Each structure is given as a SMILES string. Where “and” joins values, the source holds several entries; their conditions need not be identical. Equal values may be shown once. Inconclusive results and toxic doses are left out.

The subject of the test is L1210 leukemia ip in BDF1 mice, survival T/C. Description: NCI In Vivo Anticancer Drug Screen. Data for tumor model L1210 Leukemia (intraperitoneal) in B6D2F1 (BDF1) mice. The conditions noted are these: endpoint: mean survival time, higher = longer survival. The method, boiled down:
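Tumor cells were implanted, animals were treated, and survival was followed. The result divides the treated measurement by the vehicle-control measurement.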

Where [1] appears, read: dose: 100.0 mg/kg/injection, schedule: Q01DX001 (ip), vehicle: saline.
Where [2] appears, read: dose: 200.0 mg/kg/injection, schedule: Q01DX001 (ip), vehicle: saline.
[3] abbreviates: dose: 400.0 mg/kg/injection, schedule: Q01DX001 (ip), vehicle: saline.
Setting [4] is: dose: 100.0 mg/kg/injection, schedule: Q04DX003 (ip), vehicle: Klucel (hydroxypropylcellulose) (HPC).
Where [5] appears, read: dose: 200.0 mg/kg/injection, schedule: Q04DX003 (ip), vehicle: Klucel (hydroxypropylcellulose) (HPC).

On to `COc1ccc2c(C(=O)O)c(C(=O)c3ccccc3)ccc2c1OC`, for which the T/C runs as follows: (dose: 100.0 mg/kg/injection, schedule: Q01DX001 (ip), vehicle: gum acacia) 98 % of control; (dose: 200.0 mg/kg/injection, schedule: Q01DX001 (ip), vehicle: gum acacia) 98 % of control; (dose: 400.0 mg/kg/injection, schedule: Q01DX001 (ip), vehicle: gum acacia) 94 % of control.

With `O=C(O)COc1ccc(F)c(F)c1F`, the T/C by setting is: (dose: 100.0 mg/kg/injection, schedule: Q04DX002 (ip), vehicle: other) 107 % of control; (dose: 200.0 mg/kg/injection, schedule: Q04DX002 (ip), vehicle: other) 100 % of control; (dose: 400.0 mg/kg/injection, schedule: Q04DX002 (ip), vehicle: other) 91 % of control.

For `CC(C)(C)OOC(=O)CCCl`, the T/C is 93 % of control (dose: 100.0 mg/kg/injection, schedule: Q04DX002 (ip), vehicle: saline with Tween-80); 101 % of control (dose: 200.0 mg/kg/injection, schedule: Q04DX002 (ip), vehicle: saline with Tween-80); 101 % of control (dose: 400.0 mg/kg/injection, schedule: Q04DX002 (ip), vehicle: saline with Tween-80).

For `COc1ccccc1/C=C1\SC(=S)NC1=O`, the T/C runs as follows: (dose: 50.0 mg/kg/injection, schedule: Q01DX001 (ip), vehicle: carboxymethylcellulose (CMC)) 92 % of control; (dose: 100.0 mg/kg/injection, schedule: Q01DX001 (ip), vehicle: carboxymethylcellulose (CMC)) 101 % of control; (dose: 200.0 mg/kg/injection, schedule: Q01DX001 (ip), vehicle: carboxymethylcellulose (CMC)) 106 % of control; (dose: 400.0 mg/kg/injection, schedule: Q01DX001 (ip), vehicle: carboxymethylcellulose (CMC)) 90 % of control.

With `CC1CC(C)(C)N=C(CCC[N+](=O)[O-])O1` (centres undefined), the T/C runs as follows: (dose: 200.0 mg/kg/injection, schedule: Q04DX003 (ip), vehicle: other) 103 % of control; (dose: 400.0 mg/kg/injection, schedule: Q04DX003 (ip), vehicle: other) 88 % of control.

Consider `CCCCC(=O)N/N=C/c1ccc(OC)c(OC)c1`, for which the T/C runs as follows: under setting [1], 100 % of control; under setting [2], 94 % of control; under setting [3], 91 % of control.

As for `NC(=S)N/N=C/c1ccc(C2CCNCC2)cc1`, the T/C reads like this: (dose: 15.0 mg/kg/injection, schedule: Q01DX Z (ip), vehicle: methylcellulose (MC)) 102 % of control; (dose: 30.0 mg/kg/injection, schedule: Q01DX Z (ip), vehicle: methylcellulose (MC)) 92 % of control; (dose: 60.0 mg/kg/injection, schedule: Q01DX Z (ip), vehicle: methylcellulose (MC)) 104 % of control; (dose: 120.0 mg/kg/injection, schedule: Q01DX Z (ip), vehicle: methylcellulose (MC)) 104 % of control.

Regarding `O=c1[nH]cc(CC(F)C(F)(F)F)c(=O)[nH]1` (centres undefined), the T/C runs as follows: (dose: 60.0 mg/kg/injection, schedule: Q01DX001 (ip), vehicle: DMSO) 91 % of control; (dose: 120.0 mg/kg/injection, schedule: Q01DX001 (ip), vehicle: DMSO) 105 % of control.

Turning to `CC(C)OC(C)(C=O)OC(=O)Nc1cccc2ccccc12` (centres undefined), the T/C by setting is: (dose: 100.0 mg/kg/injection, schedule: Q04DX002 (sc), vehicle: olive oil, sesame oil, peanut oil) 100 % of control; (dose: 200.0 mg/kg/injection, schedule: Q04DX002 (sc), vehicle: olive oil, sesame oil, peanut oil) 95 % of control; (dose: 400.0 mg/kg/injection, schedule: Q04DX002 (sc), vehicle: olive oil, sesame oil, peanut oil) 103 % of control.

On to `C=C(Br)CN(CC)CC`, for which the T/C (dose: 12.5 mg/kg/injection, schedule: Q01DX009 (ip), vehicle: Klucel (hydroxypropylcellulose) (HPC)) is 90 % of control; the T/C (dose: 12.5 mg/kg/injection, schedule: Q04DX003 (ip), vehicle: Klucel (hydroxypropylcellulose) (HPC)) was 100 % of control; the T/C (dose: 25.0 mg/kg/injection, schedule: Q01DX009 (ip), vehicle: Klucel (hydroxypropylcellulose) (HPC)) was 91 % of control; the T/C (dose: 25.0 mg/kg/injection, schedule: Q04DX003 (ip), vehicle: Klucel (hydroxypropylcellulose) (HPC)) was 107 % of control; the T/C (dose: 50.0 mg/kg/injection, schedule: Q04DX003 (ip), vehicle: Klucel (hydroxypropylcellulose) (HPC)) is 96 % of control.

As for `CC(=O)Nc1ccc(Oc2ccccc2)cc1`, the T/C runs as follows: (dose: 50.0 mg/kg/injection, schedule: Q01DX009 (ip), vehicle: Klucel (hydroxypropylcellulose) (HPC)) 102 % of control; (dose: 100.0 mg/kg/injection, schedule: Q01DX009 (ip), vehicle: Klucel (hydroxypropylcellulose) (HPC)) 101 % of control; under setting [4], 95 % of control and 101 % of control; (dose: 200.0 mg/kg/injection, schedule: Q01DX009 (ip), vehicle: Klucel (hydroxypropylcellulose) (HPC)) 106 % of control; under setting [5], 97 % of control and 100 % of control; (dose: 400.0 mg/kg/injection, schedule: Q04DX003 (ip), vehicle: Klucel (hydroxypropylcellulose) (HPC)) 102 % of control.

Take `O=C(CCCc1ccc([N+](=O)[O-])cc1)Nc1ccc(S(=O)(=O)F)cc1`: the T/C by setting is: under setting [1], 101 % of control; under setting [2], 100 % of control; under setting [3], 97 % of control.

As for `CC(=O)C1=CCC2C3CC(C)=C4CC(O)CCC4(C)C3CCC12C` (centres undefined), the T/C reads like this: (dose: 100.0 mg/kg/injection, schedule: Q04DX003 (ip), vehicle: saline with Tween-80) 94 % of control; (dose: 200.0 mg/kg/injection, schedule: Q04DX003 (ip), vehicle: saline with Tween-80) 92 % of control; (dose: 400.0 mg/kg/injection, schedule: Q04DX003 (ip), vehicle: saline with Tween-80) 90 % of control.

As to `O=C(NCCCCCCNC(=O)N1CC1)N1CC1`, the T/C was 107 % of control (dose: 0.08 mg/kg/injection, schedule: Q01DX009 (ip), vehicle: saline); 97 % of control (dose: 0.15 mg/kg/injection, schedule: Q01DX009 (ip), vehicle: saline); 122 % of control (dose: 0.19 mg/kg/injection, schedule: Q01DX009 (ip), vehicle: saline); 119 % of control (dose: 0.3 mg/kg/injection, schedule: Q01DX009 (ip), vehicle: saline); 113 % of control (dose: 0.4 mg/kg/injection, schedule: Q04DX003 (ip), vehicle: saline); 168 % of control (dose: 0.66 mg/kg/injection, schedule: Q01DX009 (ip), vehicle: saline). The T/C (dose: 0.8 mg/kg/injection, schedule: Q04DX003 (ip), vehicle: saline) was 115 % of control; the T/C (dose: 1.4 mg/kg/injection, schedule: Q01DX009 (ip), vehicle: saline) was 117 % of control; the T/C (dose: 1.7 mg/kg/injection, schedule: Q01DX001 (ip), vehicle: saline) is 121 % of control; the T/C (dose: 2.2 mg/kg/injection, schedule: Q01DX009 (ip), vehicle: saline) is 86 % of control; the T/C (dose: 2.5 mg/kg/injection, schedule: Q04DX003 (ip), vehicle: saline) is 166 % of control; the T/C (dose: 3.75 mg/kg/injection, schedule: Q01DX001 (ip), vehicle: saline) was 150 % of control.

`COc1cc2c3c(c1O)-c1c(ccc(OC)c1OC)CC3N(C)CC2` (centres undefined): the T/C is 103 % of control (dose: 100.0 mg/kg/injection, schedule: Q01DX001 (ip), vehicle: saline with Tween-80); 102 % of control (dose: 200.0 mg/kg/injection, schedule: Q01DX001 (ip), vehicle: saline with Tween-80); 102 % of control (dose: 400.0 mg/kg/injection, schedule: Q01DX001 (ip), vehicle: saline with Tween-80).

On to `CO/N=C(/CSS(=O)(=O)O)c1ccccc1`, for which the T/C reads like this: (dose: 100.0 mg/kg/injection, schedule: Q04DX002 (ip), vehicle: Klucel (hydroxypropylcellulose) (HPC)) 96 % of control; (dose: 200.0 mg/kg/injection, schedule: Q04DX002 (ip), vehicle: Klucel (hydroxypropylcellulose) (HPC)) 96 % of control; (dose: 400.0 mg/kg/injection, schedule: Q04DX002 (ip), vehicle: Klucel (hydroxypropylcellulose) (HPC)) 96 % of control.

As to `O=C(NCCCN1CC1)C(=O)NNc1ccccc1`, the T/C under setting [4] is 102 % of control and the T/C under setting [5] was 93 % of control.
